From patent US7803815B2, “Indol-3-yl-corbonyl-piperidin-benzoimidazol derivatives” (Hoffmann-La Roche Inc., priority 2005, dated 2010)
pKi: −log10 of the molar value.

Biological target: T1, human V1a receptor (Homo sapiens, UniProt P37288)
T1 construct: expressed in transfected cells; host or cells: HEK293 cells, transiently transfected; membrane preparation
Assay: human V1a receptor binding, 3H-Vasopressin SPA on membranes of transfected HEK293 cells
Conditions: displacement of 4 nM 3H-Vasopressin; HEK293 cell membranes; 1 h at room temperature; Ki from IC50 by the Cheng-Prussoff equation
Method: The human V1a receptor was cloned by RT-PCR from total human liver RNA. The coding sequence was subcloned in an expression vector after sequencing to confirm the identity of the amplified sequence. […] Cell membranes were prepared from HEK293 cells transiently transfected with the expression vector and grown in 20 liter fermenters with the following protocol.
50 g of cells are resuspended in 30 ml freshly prepared ice cold Lysis buffer (50 mM HEPES, 1 mM EDTA, 10 mM MgCl2 adjusted to pH=7.4+ complete cocktail of protease inhibitor (Roche Diagnostics)). Homogenized with Polytron for 1 min and sonicated on ice for 2×2 minutes at 80% intensity (Vibracell sonicator). The preparation is centrifuged 20 min at 500 g at 4° C., the pellet is discarded, and the supernatant centrifuged 1 hour at 43,000 g at 4° C. (19,000 rpm). The pellet is resuspended in 12.5 ml Lysis buffer+12.5 ml Sucrose 20% and homogenized using a Polytron for 1-2 min. The protein concentration is determined by the Bradford method, and aliquots are stored at −80° C. until use. For binding studies 60 mg Yttrium silicate SPA beads (Amersham) are mixed with an aliquot of membrane in binding buffer (50 mM Tris, 120 mM NaCl, 5 mM, KCl, 2 mM CaCl2, 10 mM MgCl2) for 15 minutes with mixing. 50 ul of bead/membrane mixture is then added to each well of a 96 well plate, followed by 50 ul of 4 nM 3H-Vasopressin (American Radiolabeled Chemicals). For total binding measurement, 100 ul of binding buffer are added to the respective wells, for non-specific binding 100 ul of […] cold vasopressin and for compound testing 100 ul of a serial dilution of each compound in 2% DMSO. The plate is incubated 1 h at room temperature, centrifuged 1 min at 1000 g and counted on a Packard Top-Count. Non-specific binding counts are subtracted from each well, and data is normalized to the maximum specific binding set at 100%. To calculate an IC 50, the curve is fitted using a non-linear regression model (XLfit), and the Ki is calculated using the Cheng-Prussoff equation.

T1 sequence (P37288 whole entry): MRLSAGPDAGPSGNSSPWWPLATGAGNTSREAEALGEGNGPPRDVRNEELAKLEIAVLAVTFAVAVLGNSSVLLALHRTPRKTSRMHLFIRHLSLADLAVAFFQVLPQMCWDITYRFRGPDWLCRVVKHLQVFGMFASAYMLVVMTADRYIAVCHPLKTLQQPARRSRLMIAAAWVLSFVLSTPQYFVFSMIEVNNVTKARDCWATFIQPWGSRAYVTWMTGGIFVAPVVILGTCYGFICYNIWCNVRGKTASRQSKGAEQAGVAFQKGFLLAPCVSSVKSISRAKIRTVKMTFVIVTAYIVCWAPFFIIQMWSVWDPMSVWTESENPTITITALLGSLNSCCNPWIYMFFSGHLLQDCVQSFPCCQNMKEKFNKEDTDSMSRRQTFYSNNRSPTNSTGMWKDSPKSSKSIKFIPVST

Structure (SMILES): O=C(Cn1cc(C(=O)N2CCC(n3c(=O)[nH]c4ccccc43)CC2)c2ccc(Cl)cc21)c1ccc(F)cc1F [Example 36, 1-(1-{6-Chloro-1-[2-(2,4-difluoro-phenyl)-2-oxo-ethyl]-1H-indole-3-carbonyl}-piperidin-4-yl)-1,3-dihydro-benzoimidazol-2-one]
- pKi: 8.22

Structure (SMILES): O=C(c1cn(Cc2cccc(F)c2)c2cc(Cl)ccc12)N1CCC(n2c(=O)[nH]c3ccccc32)CC1 [Example 34, 1-{1-[6-Chloro-1-(3-fluoro-benzyl)-1H-indole-3-carbonyl]-piperidin-4-yl}-1,3-dihydro-benzoimidazol-2-one]
- pKi: 8.05

Structure (SMILES): COc1ccc2c(C(=O)N3CCC(n4c(=O)[nH]c5ccccc54)CC3)cn(C(C)C)c2c1 [Example 11, 1-[1-(1-Isopropyl-6-methoxy-1H-indole-3-carbonyl)-piperidin-4-yl]-1,3-dihydro-benzoimidazol-2-one]
- pKi: 7.70

Structure (SMILES): Cc1c(C(=O)N2CCC(n3c(N4CCCCC4)nc4ccccc43)CC2)c2ccccc2n1Cc1ccccc1 [Example 4, (1-Benzyl-2-methyl-1H-indol-3-yl)-[4-(2-piperidin-1-yl-benzoimidazol-1-yl)-piperidin-1-yl]-methanone]
- pKi: 8.22

Structure (SMILES): CN(C)CCn1cc(C(=O)N2CCC(n3c(=O)[nH]c4ccccc43)CC2)c2ccc(Cl)cc21 [Example 26, 1-{1-[6-Chloro-1-(2-dimethylamino-ethyl)-1H-indole-3-carbonyl]-piperidin-4-yl}-1,3-dihydro-benzoimidazol-2-one]
- pKi: 9.15

Structure (SMILES): O=C(c1cn(C(=O)c2cccc(F)c2F)c2cc(Cl)ccc12)N1CCC(n2c(=O)[nH]c3ccccc32)CC1 [Example 31, 1-{1-[6-Chloro-1-(2,3-difluoro-benzoyl)-1H-indole-3-carbonyl]-piperidin-4-yl}-1,3-dihydro-benzoimidazol-2-one]
- pKi: 7.60

Structure (SMILES): Cc1c(C(=O)N2CCC(n3c(N4CCOCC4)nc4ccccc43)CC2)c2ccccc2n1Cc1ccccc1 [Example 3, (1-Benzyl-2-methyl-1H-indol-3-yl)-[4-(2-morpholin-4-yl-benzoimidazol-1-yl)-piperidin-1-yl]-methanone]
- pKi: 7.74

Structure (SMILES): O=C(Cn1cc(C(=O)N2CCC(n3c(=O)n(CC(=O)N4CCCCC4)c4ccccc43)CC2)c2ccc(Cl)cc21)N1CCCCC1 [Example 42, 1-{1-[6-Chloro-1-(2-oxo-2-piperidin-1-yl-ethyl)-1H-indole-3-carbonyl]-piperidin-4-yl}-3-(2-oxo-2-piperidin-1-yl-ethyl)-1,3-dihydro-benzoimidazol-2-one]
- pKi: 7.74

Structure (SMILES): O=C(c1cn(C(=O)c2cc(F)cc(F)c2)c2cc(Cl)ccc12)N1CCC(n2c(=O)[nH]c3ccccc32)CC1 [Example 37, 1-{1-[6-Chloro-1-(3,5-difluoro-benzoyl)-1H-indole-3-carbonyl]-piperidin-4-yl}-1,3-dihydro-benzoimidazol-2-one]
- pKi: 7.82

Structure (SMILES): O=C(Cn1cc(C(=O)N2CCC(n3c(=O)[nH]c4ccccc43)CC2)c2ccc(Cl)cc21)c1ccc(F)c(F)c1 [Example 39, 1-(1-{6-Chloro-1-[2-(3,4-difluoro-phenyl)-2-oxo-ethyl]-1H-indole-3-carbonyl}-piperidin-4-yl)-1,3-dihydro-benzoimidazol-2-one]
- pKi: 7.74

Structure (SMILES): O=C(c1cn(CC2CCCCC2)c2ccccc12)N1CCC(n2c(=O)[nH]c3ccccc32)CC1 [Example 25, 1-[1-(1-Cyclohexylmethyl-1H-indole-3-carbonyl)-piperidin-4-yl]-1,3-dihydro-benzoimidazol-2-one]
- pKi: 7.70

Structure (SMILES): O=C(c1cn(Cc2ccccc2)c2cc(Cl)ccc12)N1CCC(n2c(=O)[nH]c3ccccc32)CC1 [Example 24, 1-[1-(1-Benzyl-6-chloro-1H-indole-3-carbonyl)-piperidin-4-yl]-1,3-dihydro-benzoimidazol-2-one]
- pKi: 8.70
